Here are results for 7 compounds from patent publication US20250186321A1, “FORMULATION USING AMINO ACID AND CARBOXYLIC ACID, ORGANIC SALT, AND COMPOSITION COMPRISING SAME AND USE THEREOF” (MIYOSHI OIL & FAT CO., LTD., priority 2021, published 2025).

A short description of data set [1]: Appearance of formulation (state at 25° C.). The format is physicochemical. The note with it: 25° C. How it is done: Formulations 1 to 427 shown in Tables 1A to 1D were prepared by the above-described method using the components (A) and (B) at the compounding molar ratios shown in the tables, and their states at 25° C. were observed.
Data set [2] can be described thus: Water retention evaluation (moisture reduction rate). The format is physicochemical. The note with it: for Moisture eduction rate / Moisture content before test (A): 80 wt. % aqueous solution; for Moisture eduction rate: 24 hours at 35° C. and 25% RH, calculated from A and B; for Moisture content before test (A): Karl Fischer; for Presence or absence of hydrates: left until the moisture content remained unchanged, based on final moisture content. How it is done: 80 wt. % aqueous solutions of the formulations (organic salts) of the working examples 428 to 459 and comparative examples 1 to 5 in Tables 2A and 2B were prepared, and the water contents were measured using a Karl Fischer moisture meter (CA-200 manufactured by Mitsubishi Chemical Analytech Co., Ltd.). It was confirmed that the water contents of them were 20.0 wt. % (moisture content before test: A). Each of the 1.0 g samples was added to a screw tube, and left uncovered to stand still for 24 hours in a constant temperature and humidity bath (KCL-2000W manufactured by Tokyo Rikakikai Co., Ltd.) which was set at 35° C. and 25% RH. Moisture contents after being left for 24 hours were measured again (moisture content after test: B) to evaluate their water retention property by using the following formula for calculating the moisture reduction rates. After that, it was left to stand still until the moisture content remained unchanged, and determinations of the hydrate and the number of hydrated water were made based on the final moisture contents. • Moisture content before test: A (%) • Moisture content after test: B (%)

Data set [3] deals with Escherichia coli. Put plainly: Antibacterial property evaluation 1 (minimum inhibitory concentration, broth microdilution). Format: cell-based. To be noted: broth microdilution method. From the text:
(§1) The following reagents, etc, were used for minimum inhibitory concentration (MIC) measurement and halo test. • Staphylococcus aureus: strain of NBRC15035, NITE • Escherichia coli: strain of […], NITE • Potassium lactate manufactured by Fujifilm Wako Pure Chemical • Medium of Muller-Hinton broth: Becton, Dickinson and Company • Media for revival of L-dried specimens “DAIGO” manufactured by Fujifilm Wako Pure Chemical • Calcium chloride manufactured by Fuji Film Wako Pure Chemical • Magnesium chloride manufactured by Fuji Film Wako Pure Chemical • Skim milk: Megmilk Snow Brand • Meat extract: from Solabia Biokar Diagnostics • Peptone: from Solabia Biokar Diagnostics • Sodium chloride manufactured by Fuji Film Wako Pure Chemical • Agar manufactured by Fuji Film Wako Pure Chemical
(§2) Working examples 556 to 583 and the comparative example 19 shown in Tables 8A and 8B were subjected to the minimum inhibitory concentration (MIC) test against Escherichia coli and Staphylococcus aureus by the broth microdilution method (as described in the standard method of the Japanese Society of Chemotherapy) to study antibacterial activities of the formulations (organic salt). Formulation (organic salt) concentrations at 250, 200, 150, 100, 50, 25, 12.5, 8, 4, 2, 0.8, 0.4, 0.2, 0.1, 0.05 mg/mL were evaluated, and the MICs are shown in Tables 8A and 8B.
Background: Broth dilution looks for growth in wells or tubes with falling amounts of substance.

In data set [4] the test system is Staphylococcus aureus. Described as above. The format is cell-based. The note with it: broth microdilution method.
Description: as §1, §2

Data set [5] in a line: Appearance of formulation (state at 25° C.). The format is physicochemical. To be noted: Tables 2A/2B; formulation at the compounding molar ratio listed.
A short description of data set [6]: Solubility evaluation of polyoxyethylene alkyl ether (AE) in the formulations. The format is physicochemical. To be noted: polyoxyethylene alkyl ether (Peletex 2465); left at 25° C. for 24 hours, visual. As for the experimental part:
Into 20 wt. % aqueous solutions of the formulations (organic salts) shown in Table 10 are dissolved methylparaben (manufactured by Tokyo Kasei, hereinafter, paraben) at 1.0 wt. %, 0.5 wt. % and 0.25 wt. % at 80° C. to prepare the respective antibacterial compositions.
Polyoxyethylene alkyl ether (hereinafter referred to as AE) which is an antiviral substance recognized to be effective against viruses was also subjected to the similar procedure to evaluate the solubility based on the above-mentioned criteria. As the AE, Peletex 2465, manufactured by Miyoshi Oil & Fats Co., Ltd., was used. (Table 10)

The nature of data set [7]: Evaluation on permeability to skin (tape stripping, ascorbyl glucoside). Format: in vivo. The note with it: scale 1(Slow) to 5(Fast), 10 wt. % aqueous solution with 5 wt. % ascorbyl glucoside, layers 1 to 8, 5 test subjects.
Description: As for the comparative example 33, ascorbyl glucoside was added so as to be 5% by mass with respect to water to prepare a sample solution. Then, a cotton material impregnated with the prepared 750 μL sample solution was applied to a 1 cm×3 cm area of the inner side of an upper arm for each of the 5 test subjects who have been kept in quiet for 30 minutes under constant temperature and humidity, and allowed to stand still for 5 minutes. After removing the cotton material, a new cotton material was used to remove the sample having been left on the skin surface and then allowed to stand still for 30 minutes. The horns in the first to eighth layers were then harvest from the application site using a Cellotape® (manufactured by Nichiban Co., Ltd.), and all of the layers obtained from the tape were used as samples for assay.
The obtained sample for assay was then extracted with 2 ml of ion-exchange water over the course of 10 min. […] The measured values of the samples for assay that were harvested from the 5 test subjects were averaged, and the averaged value was regarded as the permeation amount (μg/cm^2) to make a comparison of the total permeation amounts for the first to eighth layers. […]
Data set [8] relates to Staphylococcus aureus. Description: Antibacterial property evaluation 2 (halo test 1). To be noted: JISL1902. Format: cell-based. The source says: The following reagents, etc, were used for minimum inhibitory concentration (MIC) measurement and halo test. • Staphylococcus aureus: strain of NBRC15035, NITE • Escherichia coli: strain of […], NITE • Potassium lactate manufactured by Fujifilm Wako Pure Chemical • Medium of Muller-Hinton broth: Becton, Dickinson and Company • Media for revival of L-dried specimens “DAIGO” manufactured by Fujifilm Wako Pure Chemical • Calcium chloride manufactured by Fuji Film Wako Pure Chemical • Magnesium chloride manufactured by Fuji Film Wako Pure Chemical • […] Snow Brand • Meat extract: from Solabia Biokar Diagnostics • Peptone: from Solabia Biokar Diagnostics • Sodium chloride manufactured by Fuji Film Wako Pure Chemical • Agar manufactured by Fuji Film Wako Pure Chemical […]

The subject of data set [9] is Escherichia coli. Put plainly: Antibacterial evaluation of antibacterial composition (with paraben). Format: cell-based. To be noted: 1.0 mg/mL paraben and/or 1.0 mg/mL formulation. As for the experimental part:
as §2
(§3) Antibacterial compositions prepared to have the composition having the components (A) and (B) and paraben in an equal amount (working examples 597 to 612, wherein 1.0 mg/mL of paraben and 1.0 mg/mL of the respective working examples 597 to 612 are combined to be 2.0 mg/mL of the composition); the comparative example 27 containing only of water and paraben (at the concentration of 1.0 mg/mL of paraben); and reference example 1 containing L-lysine and citric acid (at the concentration of 1.0 mg/mL) were each subjected to a test performed by a method similar to and as explained in the section of 9-1 based on the presence or absence of the bacterial growth to evaluate the presence or absence of the antibacterial activity.

Data set [10] relates to Staphylococcus aureus. Described as above. Format: cell-based. To be noted: 1.0 mg/mL paraben and/or 1.0 mg/mL formulation. As for the experimental part: as §2, §3
A short description of data set [11]: Adhesiveness evaluation (adhesion rate to filter paper). The format is physicochemical. To be noted: vacuum dehydration for 8 hours at 60° C. As for the experimental part: The adhesion rates of the samples were each calculated from the weight change of the filter paper (Table 9). As a blank test, 100 μL of water was dropped on the filter paper, and this filter paper was dried in a vacuum. The change in weight was measured and used as the correction value.

On to `CC(O)C(=O)[O-].[K+]` (stereo not shown) [Formulation 428], for which the “state at 25° C.” value in data set [1] was “Solid”. Besides, in [2], the Moisture eduction rate is listed as 87.5%, the “Moisture content before test (A)” value came out at 20.0% and the “Presence or absence of hydrates” value is listed as “Absent”. The “MIC Escherichia coli” value in [3] stood at 100 mg/mL. The “MIC Staphylococcus aureus” value in data set [4] worked out at 150 mg/mL. Also, the “state at 25° C.” value in data set [5] was “Solid”.

Regarding `CCCC[N+](CCCC)(CCCC)CCCC.[Br-]` [Formulation 430], in data set [1], the “state at 25° C.” value is reported as “Solid”. In addition, in data set [2], the Moisture eduction rate was 70.0%, the “Moisture content before test (A)” value is given as 20.0% and the “Presence or absence of hydrates” value is given as “Absent”. Further, the “Solubility into 20 wt. % aqueous solution of the formulations: AE” value in [6] was “⊚ (1.0 wt. % or more; no crystal precipitation was observed)”. The “state at 25° C.” value in data set [5] was “Solid”.

For `CCCCn1cc[n+](C)c1.F[B-](F)(F)F` [Formulation 431], the “state at 25° C.” value in data set [1] was “Solid”. In data set [2], the Moisture eduction rate was 71.5%, the “Moisture content before test (A)” value is reported as 20.0% and the “Presence or absence of hydrates” value is “Absent”. Also, the “Solubility into 20 wt. % aqueous solution of the formulations: AE” value in [6] is “⊚ (1.0 wt. % or more; no crystal precipitation was observed)”. In addition, the “state at 25° C.” value in data set [5] is given as “Liquid”.

`OCC(O)CO` [Formulation 432]: in data set [2], the Moisture eduction rate is reported as 89.7%, the “Moisture content before test (A)” value was determined as 20.0% and the “Presence or absence of hydrates” value is given as “Absent”. Moreover, the “Relative infiltration rates of active component (ascorbyl glucoside) into skin” value in data set [7] was determined as 5. In [5], the “state at 25° C.” value is “Liquid”.

With `CCO` [Formulation 436], in data set [1], the “state at 25° C.” value is reported as “Liquid”. Further, the “Halo test 1: Presence or absence of halo” value in [8] (Concentration 10 Wt. % aqueous solution on filter paper) and in data set [8] (Concentration 50 Wt. % aqueous solution on filter paper) was “Absent” in each case.

`COC(=O)c1ccc(O)cc1` [compound 27, methylparaben]: the “presence or absence of the antibacterial activity” value in [9] and in data set [10] was “does not exhibit any antibacterial activity” throughout.

As for `CCO` [ethanol, reference compound], the “presence or absence of halos (halo test 1)” value in [8] (Staphylococcus aureus) is recorded as “no halo was observed”. For the same compound, the “adhesion to the filter paper” value in data set [11] is on record as “did not adhere to the filter paper”.
